Where only a bound is given, the exact number is not on record here.

The target of this experiment is T1, DCAF1 (1058-1396) (Homo sapiens, UniProt Q9Y4B6).
T1 construct: a fragment of a DCAF1 protein that includes amino acid residues A1058 to E1396; His6 (N, cleaved yes); made in house; host or cells: Sf9 insect cells (Bac-to-Bac baculovirus, pFastBacHT vector)
T1 sequence (Q9Y4B6 1058-1396): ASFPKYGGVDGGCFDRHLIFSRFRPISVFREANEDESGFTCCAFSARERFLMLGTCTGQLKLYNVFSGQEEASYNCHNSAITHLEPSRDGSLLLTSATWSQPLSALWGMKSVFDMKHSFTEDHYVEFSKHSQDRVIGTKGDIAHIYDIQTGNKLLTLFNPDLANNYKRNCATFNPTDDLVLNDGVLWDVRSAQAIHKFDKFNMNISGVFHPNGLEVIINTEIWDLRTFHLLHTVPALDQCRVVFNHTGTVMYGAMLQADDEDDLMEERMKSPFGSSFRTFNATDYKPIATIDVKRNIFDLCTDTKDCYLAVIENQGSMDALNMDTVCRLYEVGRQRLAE
Briefly: Surface plasmon resonance (SPR) binding assay, compound binding to DCAF1. Conditions: immobilized DCAF1 (1058-1396), steady state affinity model, 25° C. The procedure:
Binding affinities of specific exemplary compounds to DCAF1 (1058-1396), which is a fragment of a DCAF1 protein that includes amino acid residues A1058 to E1396 were determined by a surface plasmon resonance (SPR) assay. Briefly, purified DCAF1 (1058-1396) proteins were immobilized at a density of 9,000-11,000 resonance units (RUs) on a CMS sensor chip. Sensorgrams were recorded at different concentrations of compounds in multi-cycle kinetic format. Data were analyzed using a steady state affinity model through Biacore Evaluation Software to provide equivalent dissociation constants (Kd).
Binding affinities of compounds to DCAF1 were determined by a surface plasmon resonance (SPR) assay. Purified DCAF1 (1058-1396) proteins were immobilized on a CMS sensor chip, and a dose range of compound solutions were injected in multi-cycle kinetic format. Data were analyzed using a steady state model to provide equivalent dissociation constants (Kd).
Protein Expression and Purification: Human DCAF1 (1058-1396) (UniPro: Q9Y4B6) coding sequences were cloned into pFastBacHT vector and were expressed in Sf9 cells using Bac-to-Bac baculovirus expression system (Thermo Fisher Scientific). The expression construct for DCAF1 (1058-1396) included a N-terminal His6-tag to facilitate the purification. DCAF1 (1058-1396) proteins were obtained from supernatants of cell lysates and purified through sequential application of Ni affinity chromatography (Ni-NTA column, Bio-Rad), Tag removal using TEV protease, and size-exclusion chromatography (Superdex 200 column, GE Healthcare).
Surface plasmon resonance (SPR) binding assays: SPR studies were performed on a Biacore X100 plus or T200 instrument (GE Healthcare). Immobilization of purified DCAF1 (1058-1396) was carried out at 25° C. using a CMS sensor chip. The surface was pre-equilibrated in HBS-EP running buffer (10 mM HEPES, pH 7.4, 150 mM NaCl, 3 mM EDTA, 0.05% P20), before being activated with EDC/NHS. DCAF1 (1058-1396) was immobilized through amino groups to a density of 9,000-12,000 resonance units (RUs) on flow cell channel 2 (FC2), whereas flow cell channel 1 (FC1) was used as reference. Both DCAF1 immobilized and reference surfaces were deactivated with 1 M ethanolamine.
Interaction experiments were performed at 25° C. The compounds were prepared and serially diluted in HBS-EP running buffer containing final 2% DMSO (6-point two-fold serial dilution, 100 μM -3.125 μM final concentration of compounds). Compound Solutions were injected individually in multi-cycle kinetic format without regeneration (flow rate 30 μL/min, association time 60 s, dissociation time 60 s). Sensorgrams from reference surfaces and blank injections were subtracted from the raw data (double-referenced) and the data was solvent-corrected prior to analysis. Data were analyzed using a steady state affinity model through Biacore Evaluation Software to provide equivalent dissociation constants (Kd).
In general terms: SPR reads the build-up and loss of mass on a sensor chip optically.
Take `O=c1cc(CNCc2cnc[nH]2)cc[nH]1` [CPD-026, 4-((((1H-imidazol-5-yl)methyl)amino)methyl)pyridin-2(1H)-one]: the Kd was more than 100 µM.
As to `COc1cncc(CNCc2cnc[nH]2)c1` [CPD-027, N-((1H-imidazol-5-yl)methyl)-1-(5-methoxypyridin-3-yl) methanamine], the Kd is more than 100 µM.
For `COc1cc(C)cc(CNCc2cnc[nH]2)c1` [CPD-028, N-((1H-imidazol-5-yl)methyl)-1-(3-methoxy-5-methylphenyl) methanamine], the dissociation constant (Kd) is more than 100 µM.
Then `c1ncc(CNCc2ccc3cc[nH]c3c2)[nH]1` [CPD-029, N-((1H-imidazol-5-yl)methyl)-1-(1H-indol-6-yl)methanamine], with more than 100 µM.
As for `Clc1cc(CNCc2cnc[nH]2)cc2c1OCO2` [CPD-030, N-((1H-imidazol-5-yl)methyl)-1-(7-chlorobenzo[d][1,3]dioxol-5-yl)methanamine], the Kd is more than 100 µM.
As to `OCCOc1ccc(CNCc2cnc[nH]2)cc1` [CPD-031, 2-(4-((((1H-imidazol-5-yl)methyl)amino)methyl)phenoxy)ethan-1-ol], the Kd is more than 100 µM.
Then `Cc1ccc(Br)c2[nH]c3c(c12)CN(C)CC3` [CPD-038, 6-bromo-2,9-dimethyl-2,3,4,5-tetrahydro-1H-pyrido[4,3-b]indole], with more than 100 µM.
To `CCN1CCc2[nH]c3ccccc3c2C1` [CPD-043, 2-ethyl-2,3,4,5-tetrahydro-1H-pyrido[4,3-b]indole] belongs 40 to 70 µM.
In turn, `O=C(CN1CCc2[nH]c3ccc(Cl)cc3c2C1)N1CCOCC1` [CPD-044, 2-(8-chloro-1,3,4,5-tetrahydro-2H-pyrido[4,3-b]indol-2-yl)-1-morpholinoethan-1-one] yielded a Kd of 40 to 70 µM.
`c1ccc2c3c([nH]c2c1)CCN(CCc1ccncc1)C3` [CPD-045, 2-(2-(pyridin-4-yl)ethyl)-2,3,4,5-tetrahydro-1H-pyrido[4,3-b]indole]: the Kd was 40 to 70 µM.
In turn, `CN1CCc2[nH]c3ccc(Cl)cc3c2C1` [CPD-046, 8-chloro-2-methyl-2,3,4,5-tetrahydro-1H-pyrido[4,3-b]indole] displayed a Kd of more than 100 µM.
Turning to `COc1cccc2c3c([nH]c12)CCN(C)C3` [CPD-047, 6-methoxy-2-methyl-2,3,4,5-tetrahydro-1H-pyrido[4,3-b]indole], the Kd was more than 100 µM.
With `O=C(CCN1CCc2[nH]c3ccccc3c2C1)N1CCOCC1` [CPD-048, 1-morpholino-3-(1,3,4,5-tetrahydro-2H-pyrido[4,3-b]indol-2-yl)propan-1-one], the Kd was not above 40 µM.
`O=C(CCN1CCc2[nH]c3ccc(Cl)cc3c2C1)N1CCOCC1` [CPD-049, 3-(8-chloro-1,3,4,5-tetrahydro-2H-pyrido[4,3-b]indol-2-yl)-1-morpholinopropan-1-one]: the Kd was not above 40 µM.
Molecule `CNC(=O)NC(=O)CCN1CCc2[nH]c3ccc(Cl)cc3c2C1` [CPD-050, 3-(8-chloro-1,3,4,5-tetrahydro-2H-pyrido[4,3-b]indol-2-yl)-N-(methylcarbamoyl)propanamide] registered a Kd of 70 to 100 µM.
For `COC(CN1CCc2[nH]c3ccc(F)cc3c2C1)OC` [CPD-051, 2-(2,2-dimethoxyethyl)-8-fluoro-2,3,4,5-tetrahydro-1H-pyrido[4,3-b]indole], the Kd was not above 40 µM.
In turn, `C#CCNC(=O)CCN1CCc2[nH]c3ccc(F)cc3c2C1` [CPD-052, 3-(8-fluoro-1,3,4,5-tetrahydro-2H-pyrido[4,3-b]indol-2-yl)-N-(prop-2-yn-1-yl)propanamide] displayed a Kd of 40 to 70 µM.
Turning to `Nc1nc(CCN2CCc3[nH]c4ccc(F)cc4c3C2)cs1` [CPD-053, 4-(2-(8-fluoro-1,3,4,5-tetrahydro-2H-pyrido[4,3-b]indol-2-yl)ethyl)thiazol-2-amine], the Kd lay within 40 to 70 µM.
To `O=C(O)CCN1CCc2[nH]c3ccc(Br)cc3c2C1` [CPD-054, 3-(8-bromo-1,3,4,5-tetrahydro-2H-pyrido[4,3-b]indol-2-yl)propanoic acid] belongs more than 100 µM.

As usually defined, the Kd is the free concentration of one partner at which half of the binding sites on the other are occupied at equilibrium, for simple one-to-one binding. A lower Kd goes with higher affinity.
